Assays:
crabgrass = experiment: Test C pre-/postemergence test; assay type: in vivo, Digitaria sanguinalis; conditions: for Plant response rating, Crabgrass, Large: 31 g ai/ha, scale 0 to 100 (0 no effect, 100 complete control)
Outline: (§1)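 Compounds in a non-phytotoxic solvent with surfactant applied preemergence to seeded pots and, at the same time, postemergence to plants 2–18 cm tall (1- to 4-leaf stage). Paddy tests: pots flooded to 3 cm, compound applied into the water, depth held throughout.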

kochia = experiment: Test C pre-/postemergence test; assay type: in vivo, Kochia scoparia; conditions: for Plant response rating, Kochia: 31 g ai/ha, scale 0 to 100 (0 no effect, 100 complete control)
Outline: as §1

blackgrass = experiment: Test C pre-/postemergence test; assay type: in vivo, Alopecurus myosuroides; conditions: for Plant response rating, Blackgrass: 31 g ai/ha, scale 0 to 100 (0 no effect, 100 complete control)
Outline: as §1

barnyardgrass = experiment: Test A pre-/postemergence greenhouse test; assay type: in vivo, Echinochloa crus-galli; conditions: for Plant response rating, Barnyardgrass: 0 to 100 scale where 0 is no effect and 100 is complete control; for Barnyardgrass plant response rating: 0 to 100 scale
Outline: (§2)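 Planting was into mixed loam soil and sand; preemergence treatment followed as a directed soil spray. Concurrently, emerged plants (one- to two-leaf, 2–10 cm) received postemergence applications of identically formulated compound (non-phytotoxic solvent, surfactant). After approximately ten days under greenhouse conditions, injury was judged by eye against untreated plants.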

morningglory [1] = experiment: Test C pre-/postemergence test; assay type: in vivo, Ipomoea coccinea; conditions: for Plant response rating, Morningglory: 31 g ai/ha, scale 0 to 100 (0 no effect, 100 complete control)
Outline: as §1

cocklebur = experiment: Test C pre-/postemergence test; assay type: in vivo, Xanthium strumarium; conditions: for Plant response rating, Cocklebur: 31 g ai/ha, scale 0 to 100 (0 no effect, 100 complete control)
Outline: as §1

yellow nutsedge = experiment: Test C pre-/postemergence test; assay type: in vivo, Cyperus esculentus; conditions: for Plant response rating, Nutsedge, Yellow: 31 g ai/ha, scale 0 to 100 (0 no effect, 100 complete control)
Outline: as §1

morningglory [2] = experiment: Test A pre-/postemergence greenhouse test; assay type: in vivo, Ipomoea spp.; conditions: for Plant response rating, Morningglory: 0 to 100 scale where 0 is no effect and 100 is complete control; for Morningglory plant response rating: 0 to 100 scale
Outline: as §2

umbrella sedge = experiment: Test C flooded paddy test; assay type: in vivo, Cyperus difformis; conditions: Flood
Outline: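 Ratings were visual and made relative to untreated controls after 13 to 15 greenhouse days.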

corn = experiment: Test C pre-/postemergence test; assay type: in vivo, Zea mays; conditions: for Plant response rating, Corn: 31 g ai/ha, scale 0 to 100 (0 no effect, 100 complete control)
Outline: as §1

green foxtail = experiment: Test C pre-/postemergence test; assay type: in vivo, Setaria viridis; conditions: for Plant response rating, Foxtail, Green: 31 g ai/ha, scale 0 to 100 (0 no effect, 100 complete control)
Outline: as §1

pigweed = experiment: Test C pre-/postemergence test; assay type: in vivo, Amaranthus retroflexus; conditions: for Plant response rating, Pigweed: 31 g ai/ha, scale 0 to 100 (0 no effect, 100 complete control)
Outline: as §1

soybean = experiment: Test C pre-/postemergence test; assay type: in vivo, Glycine max; conditions: for Plant response rating, Soybean: 31 g ai/ha, scale 0 to 100 (0 no effect, 100 complete control)
Outline: as §1

Italian ryegrass = experiment: Test C pre-/postemergence test; assay type: in vivo, Lolium multiflorum; conditions: for Plant response rating, Ryegrass, Italian: 31 g ai/ha, scale 0 to 100 (0 no effect, 100 complete control)
Outline: as §1

[3] = tested on: common (oilseed) sunflower; experiment: Test C pre-/postemergence test; assay type: in vivo, Helianthus annuus; conditions: for Plant response rating, Sunflower: 31 g ai/ha, scale 0 to 100 (0 no effect, 100 complete control)
Outline: as §1

wheat = experiment: Test C pre-/postemergence test; assay type: in vivo, Triticum aestivum; conditions: for Plant response rating, Wheat: 31 g ai/ha, scale 0 to 100 (0 no effect, 100 complete control)
Outline: as §1

woolly cupgrass = experiment: Test C pre-/postemergence test; assay type: in vivo, Eriochloa villosa; conditions: for Plant response rating, Cupgrass, Woolly: 31 g ai/ha, scale 0 to 100 (0 no effect, 100 complete control)
Outline: as §1

[4] = 62 g ai/ha, Preemergence, scale 0 to 100
[5] = 125 g ai/ha, preemergence, scale 0 (no effect) to 100 (complete control)
[6] = preemergence, 250 g ai/ha, scale 0 (no effect) to 100 (complete control)
[7] = Postemergence, 500 g ai/ha, 0 is no effect, 100 is complete control
[8] = Preemergence, 125 g ai/ha, 0 no effect, 100 complete control
[9] = 62 g ai/ha, scale 0 to 100 (0 no effect, 100 complete control)
[10] = 250 g ai/ha, scale 0 to 100, 0 no effect, 100 complete control, 13 to 15 days

CC(Oc1c(C[S+]([O-])c2ccc(Cl)c[n+]2[O-])c(C(F)(F)F)nn1C)C(F)(F)F (stereo not drawn) [Compound 87]
Crabgrass, Large plant response rating (crabgrass; [4]): 95 | Crabgrass, Large plant response rating (crabgrass; [5]): 100 | Plant response rating, Crabgrass, Large (crabgrass; Preemergence): 80 | Crabgrass, Large plant response rating (crabgrass; [6]): 100 | Kochia plant response rating (kochia; [4]): 75 | Kochia plant response rating (kochia; [5]): 80 | Plant response rating, Kochia (kochia; Preemergence): 50 | Kochia plant response rating (kochia; [6]): 95 | Blackgrass plant response rating (blackgrass; [4]): 100 | Blackgrass plant response rating (blackgrass; [5]): 100 | Plant response rating, Blackgrass (blackgrass; Preemergence): 100 | Blackgrass plant response rating (blackgrass; [6]): 100 | Plant response rating, Barnyardgrass (barnyardgrass; Postemergence, 125 g ai/ha): 80 | Barnyardgrass plant response rating (barnyardgrass; [7]): 90 | Barnyardgrass plant response rating (barnyardgrass; [8]): 90 | Plant response rating, Barnyardgrass (barnyardgrass; Preemergence, 500 g ai/ha): 100 | Morningglory plant response rating (morningglory [1]; [4]): 80 | Morningglory plant response rating (morningglory [1]; [5]): 80 | Plant response rating, Morningglory (morningglory [1]; Preemergence): 60 | Morningglory plant response rating (morningglory [1]; [6]): 95 | Cocklebur plant response rating (cocklebur; [4]): 0 | Cocklebur plant response rating (cocklebur; [5]): 20 | Plant response rating, Cocklebur (cocklebur; Preemergence): 0 | Cocklebur plant response rating (cocklebur; [6]): 40 | Nutsedge, Yellow plant response rating (yellow nutsedge; [4]): 50 | Nutsedge, Yellow plant response rating (yellow nutsedge; [5]): 80 | Plant response rating, Nutsedge, Yellow (yellow nutsedge; Preemergence): 50 | Nutsedge, Yellow plant response rating (yellow nutsedge; [6]): 100 | Plant response rating, Morningglory (morningglory [2]; Postemergence, 125 g ai/ha): 40 | Morningglory plant response rating (morningglory [2]; [7]): 100 | Morningglory plant response rating (morningglory [2]; [8]): 20 | Plant response rating, Morningglory (morningglory [2]; Preemergence, 500 g ai/ha): 100 | Plant response rating, Sedge, Umbrella (umbrella sedge; [9]): 60 | Plant response rating, Sedge, Umbrella (umbrella sedge; [10]): 95 | Corn plant response rating (corn; [4]): 95 | Corn plant response rating (corn; [5]): 95 | Plant response rating, Corn (corn; Preemergence): 85 | Corn plant response rating (corn; [6]): 98 | Foxtail, Green plant response rating (green foxtail; [4]): 100 | Foxtail, Green plant response rating (green foxtail; [5]): 100 | Plant response rating, Foxtail, Green (green foxtail; Preemergence): 95 | Foxtail, Green plant response rating (green foxtail; [6]): 100 | Pigweed plant response rating (pigweed; [4]): 75 | Pigweed plant response rating (pigweed; [5]): 95 | Plant response rating, Pigweed (pigweed; Preemergence): 10 | Pigweed plant response rating (pigweed; [6]): 100 | Soybean plant response rating (soybean; [4]): 65 | Soybean plant response rating (soybean; [5]): 80 | Plant response rating, Soybean (soybean; Preemergence): 65 | Soybean plant response rating (soybean; [6]): 80 | Ryegrass, Italian plant response rating (Italian ryegrass; [4]): 95 | Ryegrass, Italian plant response rating (Italian ryegrass; [5]): 100 | Plant response rating, Ryegrass, Italian (Italian ryegrass; Preemergence): 95 | Ryegrass, Italian plant response rating (Italian ryegrass; [6]): 100 | Sunflower plant response rating [3, 4]: 50 | Sunflower plant response rating [3, 5]: 55 | Plant response rating, Sunflower ([3]; Preemergence): 40 | Sunflower plant response rating [3, 6]: 70 | Wheat plant response rating (wheat; [4]): 60 | Wheat plant response rating (wheat; [5]): 85 | Plant response rating, Wheat (wheat; Preemergence): 30 | Wheat plant response rating (wheat; [6]): 85 | Cupgrass, Woolly plant response rating (woolly cupgrass; [4]): 90 | Cupgrass, Woolly plant response rating (woolly cupgrass; [5]): 98 | Plant response rating, Cupgrass, Woolly (woolly cupgrass; Preemergence): 80 | Cupgrass, Woolly plant response rating (woolly cupgrass; [6]): 100

Cc1cc[n+]([O-])c(S(=O)(=O)Cc2c(C(F)(F)F)nn(C)c2OC(C)C(F)(F)F)c1 (stereo not drawn) [Compound 96]
Crabgrass, Large plant response rating (crabgrass; [4]): 85 | Crabgrass, Large plant response rating (crabgrass; [5]): 95 | Plant response rating, Crabgrass, Large (crabgrass; Preemergence): 80 | Crabgrass, Large plant response rating (crabgrass; [6]): 98 | Kochia plant response rating (kochia; [4]): 70 | Kochia plant response rating (kochia; [5]): 100 | Plant response rating, Kochia (kochia; Preemergence): 0 | Kochia plant response rating (kochia; [6]): 100 | Blackgrass plant response rating (blackgrass; [4]): 100 | Blackgrass plant response rating (blackgrass; [5]): 100 | Plant response rating, Blackgrass (blackgrass; Preemergence): 65 | Blackgrass plant response rating (blackgrass; [6]): 100 | Plant response rating, Barnyardgrass (barnyardgrass; Postemergence, 125 g ai/ha): 60 | Barnyardgrass plant response rating (barnyardgrass; [7]): 90 | Barnyardgrass plant response rating (barnyardgrass; [8]): 90 | Plant response rating, Barnyardgrass (barnyardgrass; Preemergence, 500 g ai/ha): 100 | Morningglory plant response rating (morningglory [1]; [4]): 70 | Morningglory plant response rating (morningglory [1]; [5]): 95 | Plant response rating, Morningglory (morningglory [1]; Preemergence): 0 | Morningglory plant response rating (morningglory [1]; [6]): 100 | Cocklebur plant response rating (cocklebur; [4]): 0 | Cocklebur plant response rating (cocklebur; [5]): 10 | Plant response rating, Cocklebur (cocklebur; Preemergence): 0 | Cocklebur plant response rating (cocklebur; [6]): 40 | Nutsedge, Yellow plant response rating (yellow nutsedge; [4]): 80 | Nutsedge, Yellow plant response rating (yellow nutsedge; [5]): 95 | Plant response rating, Nutsedge, Yellow (yellow nutsedge; Preemergence): 40 | Nutsedge, Yellow plant response rating (yellow nutsedge; [6]): 95 | Plant response rating, Morningglory (morningglory [2]; Postemergence, 125 g ai/ha): 10 | Morningglory plant response rating (morningglory [2]; [7]): 70 | Morningglory plant response rating (morningglory [2]; [8]): 20 | Plant response rating, Morningglory (morningglory [2]; Preemergence, 500 g ai/ha): 80 | Plant response rating, Sedge, Umbrella (umbrella sedge; [9]): 0 | Plant response rating, Sedge, Umbrella (umbrella sedge; [10]): 75 | Corn plant response rating (corn; [4]): 0 | Corn plant response rating (corn; [5]): 35 | Plant response rating, Corn (corn; Preemergence): 0 | Corn plant response rating (corn; [6]): 60 | Foxtail, Green plant response rating (green foxtail; [4]): 95 | Foxtail, Green plant response rating (green foxtail; [5]): 98 | Plant response rating, Foxtail, Green (green foxtail; Preemergence): 95 | Foxtail, Green plant response rating (green foxtail; [6]): 100 | Pigweed plant response rating (pigweed; [4]): 70 | Pigweed plant response rating (pigweed; [5]): 70 | Plant response rating, Pigweed (pigweed; Preemergence): 10 | Pigweed plant response rating (pigweed; [6]): 100 | Soybean plant response rating (soybean; [4]): 20 | Soybean plant response rating (soybean; [5]): 40 | Plant response rating, Soybean (soybean; Preemergence): 20 | Soybean plant response rating (soybean; [6]): 70 | Ryegrass, Italian plant response rating (Italian ryegrass; [4]): 98 | Ryegrass, Italian plant response rating (Italian ryegrass; [5]): 100 | Plant response rating, Ryegrass, Italian (Italian ryegrass; Preemergence): 60 | Ryegrass, Italian plant response rating (Italian ryegrass; [6]): 100 | Sunflower plant response rating [3, 4]: 0 | Sunflower plant response rating [3, 5]: 0 | Plant response rating, Sunflower ([3]; Preemergence): 0 | Sunflower plant response rating [3, 6]: 30 | Wheat plant response rating (wheat; [4]): 0 | Wheat plant response rating (wheat; [5]): 45 | Plant response rating, Wheat (wheat; Preemergence): 0 | Wheat plant response rating (wheat; [6]): 45 | Cupgrass, Woolly plant response rating (woolly cupgrass; [4]): 70 | Cupgrass, Woolly plant response rating (woolly cupgrass; [5]): 95 | Plant response rating, Cupgrass, Woolly (woolly cupgrass; Preemergence): 50 | Cupgrass, Woolly plant response rating (woolly cupgrass; [6]): 98

— patent US20100298141A1, “SUBSTITUTED PYRIDINE N-OXIDE HERBICIDES” (E. I. DU PONT DE NEMOURS AND COMPANY, priority 2007, published 2010)
